The source of these data is patent publication US9029399B2, “17α-hydroxylase/C17,20-lyase inhibitors” (Novartis AG, priority 2011, dated 2015).

The target of experiment [1] is Human CYP17 enzyme (Cytochrome P450, 17-20 lyase) (Homo sapiens (Human), UniProt P05093). The experiment in a line: CYP17 lyase assay, recombinant human CYP17 enzyme, 17-α-hydroxy pregnenolone [21-3H] substrate. The conditions noted are these: recombinant human CYP17, first value of Human/Rat cell; read-out: Lyase IC 50 Human. The experiment is classed as biochemical. The source says:
1) Cvtochrome P450, 17-20 Lyase (CYP17-Lyase) Assay Development Using Recombinant Human CYP17 Enzyme and 17-α-Hydroxy Pregnenolone [21-3H] as the Substrate
Cytochrome P450, 17-α-Hydroxylase, 17-20 lyase (CYP17) is a multi functional enzyme that plays a key role in the biosynthesis of steroid hormones. […] In the hydroxylation reaction, it converts progesterone and pregnenolone to the corresponding hydroxylated products 17-α-hydroxy progesterone and 17-α-hydroxy pregnenolone. In the lyase reaction, it catalyzes the conversion of these hydroxylated substrates to Androstenedione and Dehydroepiandrosterone (DHEA) respectively. In the Cyp17 lyase assay described here, the conversion of 17-α-hydroxy pregnenolone to Dehydroepiandrosterone and acetic acid is being monitored.
The conversion of 17-α-hydroxy pregnenolone to Dehydroepiandrosterone is accompanied by the release of acetic acid. In the Cyp17 lyase assay, 17-α-hydroxy pregnenolone labeled with tritium (3H) at position 21 is used as the substrate. Chloroform extraction removes the radioactive steroids and acetic acid is taken into aqueous layer. The tritiated acetic acid released in the assay thus extracted is quantified to determine the enzyme activity.
Human Cyp 17 gene was cloned and expressed in Adenoviral expression system in A549 cell lines. The purified cell membrane preparations were used as the source for Human CYP17 enzyme. Total protein concentration: 8 mg/mL.
For routine screening, the assay was set up with 16 μg of enzyme in 50 μL reaction volume. 17α-hydroxy pregnenolone [21-3H] was added to a final concentration of […] NADPH is used at a final concentration of 4.2 mM. Total reaction volume was made up to 50 μL with 50 mM Phosphate buffer pH 7.5. The reaction mixture was incubated at room temperature for 90 minutes with gentle shaking. The reaction was stopped by the addition of 100 μl, of buffer. 500 μl, of 5% freshly prepared activated charcoal was added to the solution and mixed well by vortexing. The samples were centrifuged at 17568×g for 5 minutes. (14000 rpm). The supernatant was carefully transferred to fresh tube and 1.3 mL of scintillation fluid was added, mixed by vortexing.
The measurements were carried out in 2.0 mL Eppendorf™ tubes. Each tube was counted for 1 minute. The amount of tritiated acetic acid released is proportional to the lyase activity. Percent lyase activity in presence of inhibitor was calculated using the formula given below.
[formula] Sample: Enzyme reaction in presence of inhibitor. Positive control: Enzyme reaction without inhibitor but containing DMSO at 1% final concentration. Blank—Contains all reagents except enzyme. % Inhibition=100%−% Lyase activity
For IC50 determination, the % inhibition was plotted as a function of inhibitor concentration. The data was fitted to sigmoidal equation using Graphpad Prism® software IV to generate IC50 values.

The target in another experiment is Rat CYP 17 Lyase (Rattus norvegicus (Rat), UniProt P11715). The experiment in a line: Rat CYP17 lyase model, rat testes microsomes. The experiment is classed as biochemical. The conditions noted are these: substrate 0.5 μM, second value of Human/Rat cell, read-out: Lyase IC 50 Rat. Here is the method:
For the Rat CYP 17 Lyase Model:
The same procedure described above was used but using rat testes microsomes as the source and with a substrate concentration of 0.5 μM.

Human CYP17 enzyme (Cytochrome P450, 17-20 lyase), sequence (P05093 whole entry): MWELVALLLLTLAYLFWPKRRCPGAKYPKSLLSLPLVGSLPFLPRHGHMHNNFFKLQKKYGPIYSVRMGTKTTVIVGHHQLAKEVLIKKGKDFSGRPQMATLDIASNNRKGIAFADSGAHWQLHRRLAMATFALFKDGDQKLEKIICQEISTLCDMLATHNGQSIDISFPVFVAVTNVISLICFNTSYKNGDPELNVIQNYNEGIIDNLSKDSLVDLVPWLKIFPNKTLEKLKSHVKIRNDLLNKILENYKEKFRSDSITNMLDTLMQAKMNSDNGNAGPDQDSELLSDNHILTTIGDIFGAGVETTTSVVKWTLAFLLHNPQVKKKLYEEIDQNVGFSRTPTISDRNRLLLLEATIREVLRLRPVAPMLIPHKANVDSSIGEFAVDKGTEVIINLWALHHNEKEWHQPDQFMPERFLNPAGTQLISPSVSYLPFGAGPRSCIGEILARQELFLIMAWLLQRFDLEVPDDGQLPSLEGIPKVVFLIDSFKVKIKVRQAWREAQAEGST
Rat CYP 17 Lyase, sequence (P11715 whole entry): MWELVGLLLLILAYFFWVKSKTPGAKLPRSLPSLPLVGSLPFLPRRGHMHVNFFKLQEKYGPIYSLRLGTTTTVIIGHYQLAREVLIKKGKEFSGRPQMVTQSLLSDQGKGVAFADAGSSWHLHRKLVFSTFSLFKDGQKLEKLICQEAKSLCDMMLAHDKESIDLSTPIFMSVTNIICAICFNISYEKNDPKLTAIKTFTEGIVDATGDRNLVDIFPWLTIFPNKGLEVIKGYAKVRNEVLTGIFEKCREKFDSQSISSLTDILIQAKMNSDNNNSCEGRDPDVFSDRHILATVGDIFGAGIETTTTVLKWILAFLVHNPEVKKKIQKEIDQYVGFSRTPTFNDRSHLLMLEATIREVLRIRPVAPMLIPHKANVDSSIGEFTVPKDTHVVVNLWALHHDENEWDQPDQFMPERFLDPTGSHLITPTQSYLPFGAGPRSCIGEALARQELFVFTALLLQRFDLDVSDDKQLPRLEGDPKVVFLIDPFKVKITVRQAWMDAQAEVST

For `O=C1N(c2ccnc(Cl)c2)CCN1c1cnccc1C1CC1` [Example 1A, 1-(2-chloropyridin-4-yl)-3-(4-cyclopropylpyridin-3-yl)imidazolidin-2-one], the figures for the IC50 (in experiment [1]; on Rat CYP 17 Lyase) were 8 nM and 2.7 nM, respectively.

Consider `COc1cc(N2CCN(c3cnccc3C3CC3)C2=O)ccn1` [Example 9A, 1-(4-cyclopropylpyridin-3-yl)-3-(2-methoxypyridin-4-yl)imidazolidin-2-one], for which the IC50 came out at 42 nM in experiment [1] and 4.6 nM at Rat CYP 17 Lyase.

For `O=C1N(c2cnccc2C2CC2)[C@@H]2C[C@@H]2N1c1ccnc(C(F)(F)F)c1` [Example 32A-II, (1R,5S)-2-(4-cyclopropylpyridin-3-yl)-4-(2-(trifluoromethyl)pyridin-4-yl)-2,4-diazabicyclo[3.1.0]hexan-3-one], the IC50 in experiment [1] came out at 6.9 nM; on Rat CYP 17 Lyase, 3 nM.
